Key:
Assay in all cases: Synergy assay, checkerboard method
E. coli ATCC 25922 = conditions: for FICI: synergistic ≤0.5; for MIC of antibiotic at brevibacillin 0 mg/L / MIC of antibiotic at brevibacillin 2V 0 mg/L / MIC of antibiotic at brevibacillin I 0 mg/L / MIC of antibiotic at brevibacillin V 0 mg/L: checkerboard, 5 × 10^5 cfu/ml, 37°C, 20 h, antibiotic alone
Description: (§1) Briefly, antibiotics were diluted in twofold series, while brevibacillins were added at a certain final concentration of 1, 2, or 4 mg/L. Indicator strains were added at a final concentration of 5 × 10^5 cfu/ml. After incubation at 37°C for 20 h, the OD600 of plates was determined. The fractional inhibitory concentration index (FICI) was calculated using the following formula: FICI = (MIC compound A in combination with B / MIC compound A) + (MIC compound B in combination with A / MIC compound B).

A. baumannii ATCC17978 = conditions: for FICI / MIC of antibiotic at brevibacillin 0 mg/L / MIC of antibiotic at brevibacillin 2V 0 mg/L / MIC of antibiotic at brevibacillin I 0 mg/L / MIC of antibiotic at brevibacillin V 0 mg/L: A. baumannii ATCC17978; for FICI: synergistic ≤0.5; for MIC of antibiotic at brevibacillin 0 mg/L / MIC of antibiotic at brevibacillin 2V 0 mg/L / MIC of antibiotic at brevibacillin I 0 mg/L / MIC of antibiotic at brevibacillin V 0 mg/L: checkerboard, 5 × 10^5 cfu/ml, 37°C, 20 h, antibiotic alone
Description: as §1

P. aeruginosa LMG6395 = conditions: for FICI: synergistic ≤0.5; for MIC of antibiotic at brevibacillin 0 mg/L / MIC of antibiotic at brevibacillin 2V 0 mg/L / MIC of antibiotic at brevibacillin I 0 mg/L / MIC of antibiotic at brevibacillin V 0 mg/L: checkerboard, 5 × 10^5 cfu/ml, 37°C, 20 h, antibiotic alone
Description: as §1

K. pneumoniae LMG20218 = conditions: for FICI: synergistic ≤0.5; for MIC of antibiotic at brevibacillin 0 mg/L / MIC of antibiotic at brevibacillin 2V 0 mg/L / MIC of antibiotic at brevibacillin I 0 mg/L / MIC of antibiotic at brevibacillin V 0 mg/L: checkerboard, 5 × 10^5 cfu/ml, 37°C, 20 h, antibiotic alone
Description: as §1

[1] = antibiotic + brevibacillin 2V, E. coli ATCC 25922
[2] = antibiotic + brevibacillin I, E.coli ATCC 25922
[3] = antibiotic + brevibacillin V, E.coli ATCC 25922
[4] = antibiotic + brevibacillin, E.coli ATCC 25922

| MIC of antibiotic at brevibacillin 0 mg/L (E. coli ATCC 25922; E.coli ATCC 25922) [mg/L] | MIC of antibiotic at brevibacillin 2V 0 mg/L (E. coli ATCC 25922; E.coli ATCC 25922) [mg/L] | MIC of antibiotic at brevibacillin I 0 mg/L (E. coli ATCC 25922; E.coli ATCC 25922) [mg/L] | MIC of antibiotic at brevibacillin V 0 mg/L (E. coli ATCC 25922; E.coli ATCC 25922) [mg/L] | MIC of antibiotic at brevibacillin 0 mg/L (A. baumannii ATCC17978) [mg/L] | MIC of antibiotic at brevibacillin 2V 0 mg/L (A. baumannii ATCC17978) [mg/L] | MIC of antibiotic at brevibacillin I 0 mg/L (A. baumannii ATCC17978) [mg/L] | MIC of antibiotic at brevibacillin V 0 mg/L (A. baumannii ATCC17978) [mg/L] | SMILES | FICI (E. coli ATCC 25922; [1]) | FICI (E. coli ATCC 25922; [2]) | FICI (E. coli ATCC 25922; [3]) | FICI (E. coli ATCC 25922; [4]) | FICI (A. baumannii ATCC17978; antibiotic + brevibacillin 2V) | FICI (A. baumannii ATCC17978; antibiotic + brevibacillin I) | FICI (A. baumannii ATCC17978; antibiotic + brevibacillin V) | FICI (A. baumannii ATCC17978; antibiotic + brevibacillin) | FICI (P. aeruginosa LMG6395; antibiotic + brevibacillin 2V) | FICI (P. aeruginosa LMG6395; antibiotic + brevibacillin I) | FICI (P. aeruginosa LMG6395; antibiotic + brevibacillin V) | FICI (P. aeruginosa LMG6395; antibiotic + brevibacillin) | also measured |
| --- | --- | --- | --- | --- | --- | --- | --- | --- | --- | --- | --- | --- | --- | --- | --- | --- | --- | --- | --- | --- | --- |
| 4 | 4 | 4 | 4 | 16 | 16 | 16 | 16 | NCC[C@H](O)C(=O)N[C@@H]1C[C@H](N)[C@@H](O[C@H]2O[C@H](CN)[C@@H](O)[C@H](O)[C@H]2O)[C@H](O)[C@H]1O[C@H]1O[C@H](CO)[C@@H](O)[C@H](N)[C@H]1O [Amikacin] | 0.188 | 0.281 | 0.250 | 0.156 | 0.141 | 0.078 | 0.094 | 0.094 | 0.266 | 0.266 | 0.266 | 0.266 | decrease of MIC of amikacin against A. baumannii (A. baumannii ATCC17978; in the presence of 4 mg/L brevibacillins): 32–64 folds; MIC of antibiotic at brevibacillin 0 mg/L (P. aeruginosa LMG6395): 2 mg/L; MIC of antibiotic at brevibacillin 2V 0 mg/L (P. aeruginosa LMG6395): 2 mg/L; MIC of antibiotic at brevibacillin I 0 mg/L (P. aeruginosa LMG6395): 2 mg/L; MIC of antibiotic at brevibacillin V 0 mg/L (P. aeruginosa LMG6395): 2 mg/L; FICI (K. pneumoniae LMG20218; antibiotic + brevibacillin 2V): 0.563; FICI (K. pneumoniae LMG20218; antibiotic + brevibacillin I): 0.563; FICI (K. pneumoniae LMG20218; antibiotic + brevibacillin V): 1.016; FICI (K. pneumoniae LMG20218; antibiotic + brevibacillin): 1.031; MIC of antibiotic at brevibacillin 0 mg/L (K. pneumoniae LMG20218): 0.5 mg/L; MIC of antibiotic at brevibacillin 2V 0 mg/L (K. pneumoniae LMG20218): 0.5 mg/L; MIC of antibiotic at brevibacillin I 0 mg/L (K. pneumoniae LMG20218): 0.5 mg/L; MIC of antibiotic at brevibacillin V 0 mg/L (K. pneumoniae LMG20218): 0.5 mg/L |
| 2 | 2 | 2 | 2 | 16 | 16 | 16 | 16 | CC[C@H]1OC(=O)[C@H](C)[C@@H](O[C@H]2C[C@@](C)(OC)[C@@H](O)[C@H](C)O2)[C@H](C)[C@@H](O[C@@H]2O[C@H](C)C[C@H](N(C)C)[C@H]2O)[C@](C)(O)C[C@@H](C)CN(C)[C@H](C)[C@@H](O)[C@]1(C)O [Azithromycin] | 0.281 | 0.375 | 0.563 | 0.188 | 0.531 | 0.516 | 1.016 | 0.531 | 0.266 | 0.266 | 0.516 | 0.516 | MIC of antibiotic at brevibacillin 0 mg/L (P. aeruginosa LMG6395): 128 mg/L; MIC of antibiotic at brevibacillin 2V 0 mg/L (P. aeruginosa LMG6395): 128 mg/L; MIC of antibiotic at brevibacillin I 0 mg/L (P. aeruginosa LMG6395): 128 mg/L; MIC of antibiotic at brevibacillin V 0 mg/L (P. aeruginosa LMG6395): 128 mg/L; FICI (K. pneumoniae LMG20218; antibiotic + brevibacillin 2V): 1.031; FICI (K. pneumoniae LMG20218; antibiotic + brevibacillin I): 1.016; FICI (K. pneumoniae LMG20218; antibiotic + brevibacillin V): 1.016; FICI (K. pneumoniae LMG20218; antibiotic + brevibacillin): 1.031; MIC of antibiotic at brevibacillin 0 mg/L (K. pneumoniae LMG20218): 16 mg/L; MIC of antibiotic at brevibacillin 2V 0 mg/L (K. pneumoniae LMG20218): 16 mg/L; MIC of antibiotic at brevibacillin I 0 mg/L (K. pneumoniae LMG20218): 16 mg/L; MIC of antibiotic at brevibacillin V 0 mg/L (K. pneumoniae LMG20218): 16 mg/L |
| 4 | 4 | 4 | 4 | 32 | 32 | 32 | 32 | CO[C@H]1/C=C/O[C@@]2(C)Oc3c(C)c(O)c4c(O)c(c(/C=N/N5CCN(C)CC5)c(O)c4c3C2=O)NC(=O)/C(C)=C\C=C\[C@H](C)[C@H](O)[C@@H](C)[C@@H](O)[C@@H](C)[C@H](OC(C)=O)[C@@H]1C [Rifampicin] | 0.313 | 0.531 | 0.375 | 0.250 | 0.375 | 0.516 | 0.516 | 0.281 | 0.516 | 0.516 | 0.516 | 0.281 | MIC of antibiotic at brevibacillin 0 mg/L (P. aeruginosa LMG6395): 32 mg/L; MIC of antibiotic at brevibacillin 2V 0 mg/L (P. aeruginosa LMG6395): 32 mg/L; MIC of antibiotic at brevibacillin I 0 mg/L (P. aeruginosa LMG6395): 32 mg/L; MIC of antibiotic at brevibacillin V 0 mg/L (P. aeruginosa LMG6395): 32 mg/L; MIC of antibiotic at brevibacillin 0 mg/L (K. pneumoniae LMG20218): 64 mg/L; MIC of antibiotic at brevibacillin 2V 0 mg/L (K. pneumoniae LMG20218): 64 mg/L; MIC of antibiotic at brevibacillin I 0 mg/L (K. pneumoniae LMG20218): 64 mg/L; MIC of antibiotic at brevibacillin V 0 mg/L (K. pneumoniae LMG20218): 64 mg/L |
| 2 | 2 | 2 | 2 | 32 | 32 | 32 | 32 | CCn1cc(C(=O)O)c(=O)c2ccc(C)nc21 [Nalidixic acid] | 0.313 | 0.313 | 0.375 | 0.375 | 0.531 | 0.516 | 1.016 | 0.625 | 0.266 | 0.266 | 0.516 | 0.516 | MIC of antibiotic at brevibacillin 0 mg/L (P. aeruginosa LMG6395): 256 mg/L; MIC of antibiotic at brevibacillin 2V 0 mg/L (P. aeruginosa LMG6395): 256 mg/L; MIC of antibiotic at brevibacillin I 0 mg/L (P. aeruginosa LMG6395): 256 mg/L; MIC of antibiotic at brevibacillin V 0 mg/L (P. aeruginosa LMG6395): 256 mg/L; FICI (K. pneumoniae LMG20218; antibiotic + brevibacillin 2V): 0.531; FICI (K. pneumoniae LMG20218; antibiotic + brevibacillin I): 0.516; FICI (K. pneumoniae LMG20218; antibiotic + brevibacillin V): 1.016; FICI (K. pneumoniae LMG20218; antibiotic + brevibacillin): 0.563; MIC of antibiotic at brevibacillin 0 mg/L (K. pneumoniae LMG20218): 32 mg/L; MIC of antibiotic at brevibacillin 2V 0 mg/L (K. pneumoniae LMG20218): 32 mg/L; MIC of antibiotic at brevibacillin I 0 mg/L (K. pneumoniae LMG20218): 32 mg/L; MIC of antibiotic at brevibacillin V 0 mg/L (K. pneumoniae LMG20218): 32 mg/L |
